Earlier results on one molecule are cited in paper PMC11952222, “Development and comparison of single FLT3-inhibitors to dual FLT3/TAF1-inhibitors as an anti-leukemic approach” (PLOS One, 2025).

In general, pIC50 refers to the negative decadic logarithm of the IC50, by convention in mol/L.

The data set concerns TAF1. The note with it: reference compounds; read-out: TAF1 IC50, literature-reported; cited from earlier work.

The structures appear in SMILES notation. pIC50: −log10 of the molar value.

Regarding `Cc1cc2c(cc1N1C(=O)c3cccc4c(CCCO)ccc(c34)C1=O)n(C)c(=O)n2C` [BAY299], the pIC50 was 8.10.
